Source: US11911394B2, “Compound and method for the prevention of transmission of influenza virus” (Hoffmann-La Roche Inc., priority 2019, dated 2024)
Like-named read-outs stand apart in the source and are kept apart here.

Key:
Assay type in all cases: in vivo
A/Perth/265/2009 virus = assay: Example 2 ferret contact transmission study, serology (HI assay) of recipient sera; conditions: for recipients demonstrating antibody responses to donor virus (serology): positive/total
Description: Sera were collected from endpoint recipient blood samples by centrifugation, and non-specific inhibitors of agglutination were removed by treatment with receptor-destroying enzyme (RDE) (Denka Seiken) according to manufacturer's instructions. Treated sera were adsorbed with turkey RBCs prior to HI assay to remove non-specific agglutination factors. Briefly, sera (initially 1:20 dilution) were serially diluted twofold in PBS in V-bottom 96-well plates (final row left as PBS negative control). A/Perth/265/2009 virus adjusted to 4 haemagglutination units in 25 μL was mixed to all sample wells for 1 hr incubation at room temperature, followed by 45 min incubation of 1% turkey RBC. […] HI titre was calculated as the reciprocal of the highest serum dilution at which agglutination was inhibited.
This study consisted of three separate Experiments using different schedules of antiviral treatment and timing of naïve animal co-housing. In each experiment, twenty-four ferrets were randomly assigned to three groups (n=8): BXA, OST and placebo. Within each group, n=4 ferrets were designated as treated donor ferrets, and n=4 as naïve recipients. On 0 DPI (days post inoculation) for each experiment, all donor ferrets (each individually housed) were intranasally inoculated with influenza A/Perth/265/2009 at […] tissue culture infective doses (TCID50) in 40 μL of phosphate-buffered saline (PBS). As described above, donors in the BXA and placebo groups received a single antiviral treatment, whereas OST-group donors were treated daily until endpoint (excluding cull day). At the designated time point, naïve recipient ferrets were co-housed with treated donor ferrets (1:1 per cage) for a contact exposure period of 48 hr.
Experiment 2: Antiviral treatment commenced at 1 DPI, and recipient co-housing was delayed until 24 hr following treatment (2 DPI). Body weight and temperature were monitored daily from all animals. Daily nasal wash samples were collected using 1 mL of PBS from 1 DPI to 4 DPI for donor animals, and 1 DPE to 10 DPE for recipient animals. Donors were sacrificed at 4 DPI (2 DPE), and blood was collected from BXA- and placebo-treated ferrets by cardiac puncture. Recipients were maintained until 16 DPE, at which time blood was collected by cardiac puncture.
Experiment 3: Antiviral treatment commenced at 2 DPI, and recipients were co-housed immediately afterwards. Body weight and temperature were monitored daily from all animals. Daily nasal wash samples were collected using 1 mL of PBS from 1 DPI to 4 DPI for donor animals, and 1 DPE to 10 DPE for recipient animals. Donors were sacrificed at 4 DPI (2 DPE), and blood was collected from BXA- and placebo-treated ferrets by cardiac puncture. Recipients were maintained until 16 DPE, at which time blood was collected by cardiac puncture.

[1] = test system: Influenza A/Perth/265/2009 H1N1pdm09 virus; assay: Example 2 ferret contact transmission study, TCID50 assay of nasal wash; conditions: for treated donors TCID50-positive (shedding detectable infectious virus) at donor endpoint: Example 2, all experiment schedules (Experiments 1-3); for recipient ferrets shedding detectable infectious virus (TCID50) following contact exposure to donor: donor treated 1 DPI; for recipient ferrets shedding detectable infectious virus (TCID50) following contact exposure to donor / donors shedding detectable infectious virus (TCID50) at 3 DPI endpoint / donors shedding detectable infectious virus (TCID50) at 4 DPI endpoint / ferrets shedding infectious virus (TCID50), FIG. 13A recipient results / donors shedding infectious virus (TCID50) at 4 DPI endpoint: positive/total; for donors shedding detectable infectious virus (TCID50) at 3 DPI endpoint / donors shedding detectable infectious virus (TCID50) at 4 DPI endpoint: treatment 1 DPI; for donor group titer (TCID50) compared to placebo group: baloxavir at 2 DPI (p≤0.05), 3 DPI and 4 DPI (p≤0.001), oseltamivir on 2-4 DPI; for ferrets shedding infectious virus (TCID50), FIG. 13A recipient results: donor treated 2 DPI, printed as donors at 4 DPI endpoint; for donors shedding infectious virus (TCID50) at 4 DPI endpoint: treatment 2 DPI; for effect of donor treatment on contact transmission to naïve ferrets: Example 2 Experiments 1-3
[2] = test system: influenza A virus A/England/195/2009; assay: Example 1 ferret transmission study (direct contact and respiratory droplet), plaque assay of nasal wash; conditions: for Donor ferrets positive for influenza as detected by the plaque assay: donor ferrets treated 24 h post infection; for Donor ferrets positive for influenza as detected by the plaque assay / Sentinel DC ferrets positive for influenza as detected by the plaque assay / Sentinel RD ferrets positive for influenza as detected by the plaque assay: positive/total; for respiratory droplet transmission: from treated donor ferrets to sentinels; for mean time to virus shedding, direct contact sentinels: sentinels exposed to treated donors, control 4.25 days; for Sentinel DC ferrets positive for influenza as detected by the plaque assay: untreated direct contact sentinels of treated donors; for mean time to virus shedding, respiratory droplet exposed sentinels: untreated donors 4.5 days, baloxavir value from the one infected sentinel; for Sentinel RD ferrets positive for influenza as detected by the plaque assay: untreated respiratory droplet sentinels of treated donors
[3] = Example 2 antiviral pharmacokinetic analysis, endpoint donor plasma; conditions: ferret, sc, 4 mg/kg, 4 mg/kg s.c., read-out: baloxavir in plasma ±SD
Procedure: The active form baloxavir acid (S-033447, hereafter BXA) and pro-drug oseltamivir phosphate (hereafter OST) was kindly provided by Shionogi & Co., Ltd., Japan. The vehicle for BXA delivery was methyl cellulose (Sigma-Aldrich, Australia) in 0.5 w/v % aqueous solution prepared with sterile water (hereafter MC solution). BXA in suspension with MC solution (1 mg/mL) was prepared using an agate mortar and pestle, and was delivered to reversibly anaesthetised animals in a single treatment consisting of 4 subcutaneous injections at 4 locations on the dorsal region (total dose 4 mg/kg per animal). Animals in the placebo group were dosed identically using MC solution (1 mL/kg) alone. OST doses (10 mg/mL) were prepared in sugar solution (1 g/mL) and delivered bis in die (8 hr interval) to non-sedated ferrets by the oral route (total dose 10 mg/kg/day).
Endpoint BXA and placebo-treated donor blood samples were collected in heparinised tubes, and plasma isolated by centrifugation. Plasma samples were stored at −80° C. until transport to analytical facilities at Shionogi & Co., Ltd.
Experiment 1: Antiviral treatment for all donors commenced at 1 DPI, and naïve recipient ferrets were co-housed immediately following treatment. Body weight and temperature were monitored daily from all animals. Daily nasal wash samples were collected 1 mL of PBS from 1 DPI to 3 DPI for donor animals, and 1 day post exposure (DPE) to 10 DPE for recipient animals. Donors were sacrificed at 3 DPI (2 DPE), and blood was collected from BXA- and placebo-treated ferrets by cardiac puncture. Recipients were sacrificed at 10 DPE.
Experiment 2: Antiviral treatment commenced at 1 DPI, and recipient co-housing was delayed until 24 hr following treatment (2 DPI). Body weight and temperature were monitored daily from all animals. […]
Experiment 3: Antiviral treatment commenced at 2 DPI, and recipients were co-housed immediately afterwards. Body weight and temperature were monitored daily from all animals. […]

[4] = Example 2 Experiment 1, baloxavir at 2 DPI (p≤0.05) and 3 DPI (p≤0.001)
[5] = Example 2 Experiment 1, co-housing 1 DPI
[6] = Example 2 Experiment 2, co-housing 2 DPI
[7] = Example 2 Experiment 3, baloxavir at 3 and 4 DPI (p≤0.001), oseltamivir on 3 DPI (p≤0.05)
[8] = Example 2 Experiment 3, co-housing 2 DPI

SMILES	recipients demonstrating antibody responses to donor virus (serology) (A/Perth/265/2009 virus; Example 2 Experiment 2)	treated donors TCID50-positive (shedding detectable infectious virus) at donor endpoint [1]	donor group titer (TCID50) compared to placebo-group [1, 4]	recipient ferrets shedding detectable infectious virus (TCID50) following contact exposure to donor [1, 5]	donors shedding detectable infectious virus (TCID50) at 3 DPI endpoint ([1]; Example 2 Experiment 1)	donor group titer (TCID50) compared to placebo group ([1]; Example 2 Experiment 2)	recipient ferrets shedding detectable infectious virus (TCID50) following contact exposure to donor [1, 6]	donors shedding detectable infectious virus (TCID50) at 4 DPI endpoint ([1]; Example 2 Experiment 2)	donor group titer (TCID50) compared to placebo-group [1, 7]	ferrets shedding infectious virus (TCID50), FIG. 13A recipient results [1, 8]	donors shedding infectious virus (TCID50) at 4 DPI endpoint ([1]; Example 2 Experiment 3)	effect of donor treatment on contact transmission to naïve ferrets [1]	Donor ferrets positive for influenza as detected by the plaque assay [2]	respiratory droplet transmission [2] [%]	mean time to virus shedding, direct contact sentinels [2] [days]	Sentinel DC ferrets positive for influenza as detected by the plaque assay [2]	mean time to virus shedding, respiratory droplet exposed sentinels [2] [days]	Sentinel RD ferrets positive for influenza as detected by the plaque assay [2]	other results
CCOC(=O)C1=C[C@@H](OC(CC)CC)[C@H](NC(C)=O)[C@@H](N)C1 [oseltamivir, oseltamivir phosphate, reference compound]	4/4	4/4	no significant difference	4/4	4/4	no difference	4/4	4/4	significantly lower	4/4	4/4	does not reduce	4/4	100	5.5	4/4	9.3	3/4	recipients demonstrating evidence of infection by TCID50, qRT-PCR and serology ([1]; Example 2, all experimental conditions): 100%
O=C1c2c(O)c(=O)ccn2N([C@@H]2c3ccccc3SCc3c2ccc(F)c3F)[C@@H]2COCCN12 [baloxavir, baloxavir acid]	2/4	0/4 and No	significantly lower	1/4	0/4	significantly lower	1/4	0/4	significantly lower	2/4	0/4	reduces	3/4	25	5.5	4/4	8	1/4	reduction of antibody responses in TCID50-negative recipients compared to titres in placebo-group recipients (A/Perth/265/2009 virus; Example 2 Exp. 2 and 3): 16-32 fold; reduction of antibody response in TCID50-negative ferret compared to TCID50-positive ferrets (A/Perth/265/2009 virus; Example 2 Experiment 2, baloxavir-group recipient): > 32 fold change; reduction of antibody titres in TCID50-negative recipients compared to TCID50-positive ferrets (A/Perth/265/2009 virus; Example 2 Experiment 3, TCID50-negative baloxavir-group recipients (2/4)): > 16 fold change; mean viral titres compared to the placebo-group ([1]; Example 2, 24 hours following treatment, all experiment conditions (p≤0.05)): significantly reduced; frequency of infectious viral shedding in recipients ([1]; Example 2, donor treatment at 1 DPI): 25%; frequency of infectious viral shedding in recipients ([1]; Example 2, donor treatment at 2 DPI): 50%; infectious virus titers in the URT compared to both placebo and oseltamivir ([1]; Example 2, three independent experiments, single treatment of infected ferrets): significantly reduced; reduction in transmission ([1]; Example 2, treatment 48 hr post infection): 50%; reduction of transmission ([1]; Example 2, treatment within 24 hr of infection): 75%; donor group titer (TCID50) compared to oseltamivir group ([1]; Example 2 Experiment 2, 3-4 DPI (p≤0.01)): significantly lower; donor group titer (TCID50) compared to oseltamivir-group ([1]; Example 2 Experiment 3, 4 DPI (p≤0.001)): lower; concentration at 48 h ([3]; Example 2 Experiment 1, 48 hours post treatment): 10.2 ± 2.8 ng/mL; concentration at 72 h ([3]; Example 2 Experiment 2, 72 hr post treatment): 12.5 ± 2.4 ng/mL; concentration at 72 h ([3]; Example 2 Experiment 3, 72 hr post treatment (so in the source)): 24.5 ± 4.03 ng/mL
